In brackets after ≈: the same amount, converted by molar mass. Like-named read-outs stand apart in the source and are kept apart here.
Tests used:
Mouse blood levels = assay type: in vivo, male albino mice, CS1 strain; conditions: for concentration at 5 min / concentration at 10 min / concentration at 20 min / concentration at 0.5 h / concentration at 1 h / half-life: blood, sc, 50 mg/kg subcutaneous; for concentration at 5 min: 5 minutes after dosing; for concentration at 5 min / concentration at 10 min / concentration at 20 min / concentration at 0.5 h / concentration at 1 h: mean of 5 experiments, assay Neisseria catarrhalis, read-out: Concentration (blood level); for concentration at 10 min: 10 minutes after dosing; for concentration at 20 min: 20 minutes after dosing; for concentration at 0.5 h: 30 minutes after dosing; for concentration at 1 h: 60 minutes after dosing
Protocol: The blood levels of the 5-ethoxycarbonylpentyl amide of monic acid A were measured after subcutaneous dosing to male albino mice.
Species: Albino male mice 18-22 g CS1 strain.
Routes: Subcutaneous and oral.
Dose: 50 mg/kg. This compound was supplied as an oil. It was administered as a solution in 10% DMF v/v in PBS or water.
Assay: Neisseria catarrhalis, immediate assay of samples.

[1] = tested on: Neisseria catarrhalis 1502; assay: MIC, serial dilution in nutrient agar, human bacteria; assay type: cell-based
Bacillus subtilis 6633 = assay: as above; assay type: cell-based
Strep. pneumoniae CN33 = assay: as above; assay type: cell-based; conditions: Streptococcus pneumoniae
Bord. bronchiseptica BO9 = assay: MIC, veterinary bacteria; assay type: cell-based; conditions: Bordetella bronchiseptica
M. dispar NCTC 10125 = assay: in vitro MIC, anti-mycoplasmal activity; assay type: cell-based; conditions: Friis' broth, microtiter method
Description: (§1) Tables 3 and 4 show the in vitro MIC values (μg/ml) of the compounds of Examples 1 to 9 against a number of mycoplasma organisms, determined in Friis' broth using the microtiter method.

M. fermentans MWKL4 = assay: in vitro MIC, anti-mycoplasmal activity; assay type: cell-based; conditions: Mycoplasmopsis fermentans, Friis' broth, microtiter method
Description: as §1

M. dispar H225 = assay: in vitro MIC, anti-mycoplasmal activity; assay type: cell-based
Description: as §1

M. pneumoniae ATCC 15492 = assay: in vitro MIC, anti-mycoplasmal activity; assay type: cell-based; conditions: Mycoplasmoides pneumoniae, ATCC15492, Friis' broth, microtiter method
Description: as §1

M. pulmonis JB = assay: in vitro MIC, anti-mycoplasmal activity; assay type: cell-based; conditions: Mycoplasmopsis pulmonis, Friis' broth, microtiter method
Description: as §1

[2] = tested on: M. suipneumoniae J2206/183b; assay: in vitro MIC, anti-mycoplasmal activity; assay type: cell-based; conditions: Mesomycoplasma hyopneumoniae, Friis' broth, microtiter method
Description: as §1

Strep. uberis SPU 1 = assay: MIC, veterinary bacteria; assay type: cell-based; conditions: Streptococcus uberis, SPU1; Strep. uberis SPU 1; read-out: M.I.C.
M. pneumoniae 427a = assay: in vitro MIC, anti-mycoplasmal activity; assay type: cell-based; conditions: Mycoplasmoides pneumoniae, Friis' broth, microtiter method
Past. multocida PAI = assay: MIC, veterinary bacteria; assay type: cell-based; conditions: Pasteurella multocida
M. suipneumoniae Str. 11 = assay: in vitro MIC, anti-mycoplasmal activity; assay type: cell-based; conditions: Mesomycoplasma hyopneumoniae, Friis' broth, microtiter method
Past. haemolytica PA5 = assay: MIC, veterinary bacteria; assay type: cell-based; conditions: Mannheimia haemolytica; Past. haemolytica PA5; read-out: M.I.C.
[3] = tested on: Haemophilus influenzae Q1; assay: MIC, serial dilution in nutrient agar, human bacteria; assay type: cell-based; conditions: nutrient agar containing 5% chocolated horse blood
[4] = tested on: Strep. dysgalactiae SPD 1; assay: MIC, veterinary bacteria; assay type: cell-based; conditions: Streptococcus dysgalactiae, SPD1; Strep. dysgalactiae SPD 1; read-out: M.I.C.
Staph. aureus 152 = assay: MIC, veterinary bacteria; assay type: cell-based; conditions: Staphylococcus aureus
Staph. aureus Oxford = assay: MIC, serial dilution in nutrient agar, human bacteria; assay type: cell-based; conditions: Staphylococcus aureus; Staph. aureus Oxford; nutrient agar containing 5% chocolated horse blood; read-out: M.I.C.
Staph. aureus B4 = assay: MIC, veterinary bacteria; assay type: cell-based; conditions: Staphylococcus aureus; Staph. aureus B4; read-out: M.I.C.
[5] = tested on: Haemophilus influenzae Wy21; assay: MIC, serial dilution in nutrient agar, human bacteria; assay type: cell-based
[6] = tested on: Pasteurella multocida 1633; assay: as above; assay type: cell-based; conditions: nutrient agar containing 5% chocolated horse blood
Staph. aureus Russell = assay: as above; assay type: cell-based; conditions: Staphylococcus aureus; Staph. aureus Russell; nutrient agar containing 5% chocolated horse blood; read-out: M.I.C.
[7] = tested on: Neisseria flavescens 8263; assay: as above; assay type: cell-based; conditions: nutrient agar containing 5% chocolated horse blood
[8] = Neisseria catarrhalis 1502, nutrient agar containing 5% chocolated horse blood, read-out: M.I.C.
[9] = Bacillus subtilis 6633, nutrient agar containing 5% chocolated horse blood, read-out: M.I.C.
[10] = Strep. pneumoniae CN33, nutrient agar containing 5% chocolated horse blood, read-out: M.I.C.
[11] = Bord. bronchiseptica BO9, read-out: M.I.C.
[12] = M. dispar H225, Friis' broth, microtiter method, read-out: M.I.C.
[13] = Past. multocida PAI, read-out: M.I.C.
[14] = Haemophilus influenzae Wy21, nutrient agar containing 5% chocolated horse blood, read-out: M.I.C.

| SMILES | MIC (Bacillus subtilis 6633; [9]) [µg/mL] | MIC (Strep. pneumoniae CN33; [10]) [µg/mL] | MIC (M. dispar NCTC 10125) [µg/mL] | MIC (M. fermentans MWKL4) [µg/mL] | MIC (M. pneumoniae ATCC 15492) [µg/mL] | MIC (M. pulmonis JB) [µg/mL] | MIC [2] [µg/mL] | MIC (Strep. uberis SPU 1) [µg/mL] | MIC (M. pneumoniae 427a) [µg/mL] | MIC (Past. multocida PAI; [13]) [µg/mL] | MIC (M. suipneumoniae Str. 11) [µg/mL] | MIC (Past. haemolytica PA5) [µg/mL] | MIC [3] [µg/mL] | MIC [4] [µg/mL] | MIC (Staph. aureus 152) [µg/mL] | MIC (Staph. aureus Oxford) [µg/mL] | MIC (Staph. aureus B4) [µg/mL] | MIC [5, 14] [µg/mL] | MIC [6] [µg/mL] | MIC (Staph. aureus Russell) [µg/mL] | further results |
| --- | --- | --- | --- | --- | --- | --- | --- | --- | --- | --- | --- | --- | --- | --- | --- | --- | --- | --- | --- | --- | --- |
| C/C(=C\C(=O)OCCCCCCCCC(=O)O)C[C@@H]1OC[C@H](C[C@@H]2O[C@H]2[C@@H](C)[C@H](C)O)[C@@H](O)[C@H]1O [Pseudomonic Acid, reference compound] | – | – | – | – | – | – | – | – | – | – | – | – | – | – | – | – | – | – | – | – | concentration at 5 min (Mouse blood levels): 8200 ng/mL; concentration at 10 min (Mouse blood levels): 3700 ng/mL; concentration at 20 min (Mouse blood levels): 1100 ng/mL; concentration at 0.5 h (Mouse blood levels): 620 ng/mL; concentration at 1 h (Mouse blood levels): < 500 ng/mL; half-life (Mouse blood levels): 5 min |
| CC(=CC(=O)N(C)C)CC1OCC(CC2OC2C(C)C(C)O)C(O)C1O (centres unmarked) [Example 4, Dimethylamide of monic acid A] | 25 (≈ 67.3 µM) | 50 (≈ 135 µM) | 2.5 (≈ 6.73 µM) | 1.25 (≈ 3.36 µM) | > 10 | 5 (≈ 13.5 µM) | > 10 | 20 (≈ 53.8 µM) | > 10 | 5 (≈ 13.5 µM) | 10 (≈ 26.9 µM) | 40 (≈ 108 µM) | 2.5 (≈ 6.73 µM) | 20 (≈ 53.8 µM) | > 80 | 5 (≈ 13.5 µM) | 20 (≈ 53.8 µM) | 2.5 (≈ 6.73 µM) | 2.5 (≈ 6.73 µM) | 25 (≈ 67.3 µM) | MIC [1, 8]: 2.5 µg/mL (≈ 6.73 µM); MIC (Bord. bronchiseptica BO9; [11]): 40 µg/mL (≈ 108 µM); MIC (M. dispar H225; [12]): 5 µg/mL (≈ 13.5 µM) |
| CC(=CC(N)=O)CC1OCC(CC2OC2C(C)C(C)O)C(O)C1O (centres unmarked) [Example 1, Primary amide of monic acid A] | 100 (≈ 291 µM) | – | 1.9 (≈ 5.53 µM) | 15.6 (≈ 45.4 µM) | – | 15.6 (≈ 45.4 µM) | 7.8 (≈ 22.7 µM) | 20 (≈ 58.2 µM) | 250 (≈ 728 µM) | 40 (≈ 116 µM) | – | 40 (≈ 116 µM) | 5 (≈ 14.6 µM) | 20 (≈ 58.2 µM) | > 80 | 50 (≈ 146 µM) | > 80 | 10 (≈ 29.1 µM) | 10 (≈ 29.1 µM) | 100 (≈ 291 µM) | MIC (Strep. pneumoniae CN33; CN33): 100 µg/mL (≈ 291 µM); MIC (Bord. bronchiseptica BO9; BO9): 40 µg/mL (≈ 116 µM); MIC [7]: 2.5 µg/mL (≈ 7.28 µM) |
| CCOC(=O)CCCCCNC(=O)C=C(C)CC1OCC(CC2OC2C(C)C(C)O)C(O)C1O (centres unmarked) [Example 5, 5-Ethoxycarbonylpentylamide of monic acid A] | 10 (≈ 20.6 µM) | 1 (≈ 2.06 µM) | 0.156 (≈ 0.321 µM) | 0.039 (≈ 0.0803 µM) | 10 (≈ 20.6 µM) | < 0.02 | 2.5 (≈ 5.15 µM) | 0.35 (≈ 0.721 µM) | > 10 | 0.35 (≈ 0.721 µM) | 1.25 (≈ 2.57 µM) | 11 (≈ 22.7 µM) | 0.05 (≈ 0.103 µM) | 0.7 (≈ 1.44 µM) | 45 (≈ 92.7 µM) | 25 (≈ 51.5 µM) | 11 (≈ 22.7 µM) | 0.5 (≈ 1.03 µM) | – | 50 (≈ 103 µM) | concentration at 5 min (Mouse blood levels): 22100 ng/mL; concentration at 10 min (Mouse blood levels): 22600 ng/mL; concentration at 20 min (Mouse blood levels): 16100 ng/mL; concentration at 0.5 h (Mouse blood levels): 9100 ng/mL; concentration at 1 h (Mouse blood levels): < 4000 ng/mL; half-life (Mouse blood levels): 15 min; blood levels compared with pseudomonic acid (Mouse blood levels; subcutaneous dosing): higher and more prolongued than those obtained after subcutaneous dosing of pseudomonic acid; MIC ([1]; Neisseria, 1502): 0.05 µg/mL (≈ 0.103 µM); MIC (Bord. bronchiseptica BO9; [11]): 23 µg/mL (≈ 47.4 µM); MIC (M. dispar H225; [12]): 0.312 µg/mL (≈ 0.642 µM) |
| CC(=CC(=O)N1CCOCC1)CC1OCC(CC2OC2C(C)C(C)O)C(O)C1O (centres unmarked) [Example 6, Morpholinyl amide of monic acid A] | – | 10 (≈ 24.2 µM) | 2.5 (≈ 6.05 µM) | 0.625 (≈ 1.51 µM) | > 10 | 0.156 (≈ 0.377 µM) | 10 (≈ 24.2 µM) | 2.5 (≈ 6.05 µM) | > 10 | – | 2.5 (≈ 6.05 µM) | 20 (≈ 48.4 µM) | 0.2 (≈ 0.484 µM) | 2.5 (≈ 6.05 µM) | > 80 | 10 (≈ 24.2 µM) | 20 (≈ 48.4 µM) | – | 1 (≈ 2.42 µM) | 50 (≈ 121 µM) | MIC [1, 8]: 5 µg/mL (≈ 12.1 µM); MIC (Bacillus subtilis 6633; Bacillus subtilis, 6633): 10 µg/mL (≈ 24.2 µM); MIC (Bord. bronchiseptica BO9; BO9): 20 µg/mL (≈ 48.4 µM); MIC (M. dispar H225): 1.25 µg/mL (≈ 3.02 µM); MIC (Past. multocida PAI): 0.625 µg/mL (≈ 1.51 µM); MIC ([5]; Haemophilus influenzae, WY21): 0.5 µg/mL (≈ 1.21 µM) |
